No end group written: not given here.
How the values were obtained:
[1] = tested on: senility-accelerated mice (SAM-P/8 strain); assay: Passive avoidance learning test; type: in vivo, mouse; conditions: SAM-P/8, sixth month after birth; s.c. once a week from third week after birth; group 1 150 μg/kg/day, group 2 80 μg/kg/day; test trial 24 hours after acquisition trial; compared to control (SAM-P/8); FIG. 1
Description: In a passive avoidance learning test, remembering ability of senility-accelerated mice of the SAM-P/8 strain decreases from the third month from birth. The effect of the peptide of the present invention for improving said learning disability was investigated. Thus, a mouse was placed in front of a dark box and its ability to remember what it learned was measured using the time it took to come into the box as an index. Electric current was turned on in the dark box after the mouse came into the box so that an electric shock was applied. […] The test trial was conducted 24 hours after the acquisition trial.
The peptide of the present invention was subcutaneously injected once a week since the third week after birth and its effect of improving the passive avoiding ability which was lowered in SAM-P/8 was investigated.

[2] = tested on: senility-accelerated mice (SAM-P/8 strain); assay: Water maze task (Morris' water maze task); type: in vivo, mouse
Description: A platform was placed at 1 cm under the water surface in a circular swimming pool for the experiment and then fine Styrofoam beads were uniformly sprinkled onto the water surface so that a mouse was unable to recognize the platform. Any hint to the mouse in the space around the device (such as persons in charge of the experiment, table, fluorescent light and machines for the experiment) was always kept constant during the experimental period. Four starting points were randomly selected, a mouse was placed into the water, turning its head to the wall of the pool, and its diving time until it escaped to the platform was measured. When the mouse climbed up to the platform, it was left as it was for 15 seconds. […] The case from one starting point was defined as one trial and four trials were done every ten minutes and defined as one block. Four blocks were carried out in total every other day. Senility-accelerated mice (SAM-P/8) which were not administered any compounds of the present invention were used as a control. […] After the above-menfioned four blocks were conducted, the platform was removed, the mouse was permitted to swim for a certain period, and the time for swimming in each of the four areas was measured. […] Therefore, the learning and remembering abilities could be determined measuring the staying time in each of the four areas.

[3] = tested on: neuronal death in the CA1 subfields of the hippocampus; assay: Protective effect on cerebral neurons after ischemic insult (common carotid artery occlusion); type: in vivo, Wister-strain rat; conditions: continuous intracerebroventricular infusion 850 μg/ml; carotid occlusion 15 minutes; histology five days after ischemia; 4 rats/group
Description: Additionally, the effects of the peptides of the present invention on neuronal death in the CA1 subfields of the hippocampus were tested as follows:
The peptide fragment of the present invention, the 1-29 amino acid residue peptide fragment of bovine aFGF in which Cys, an amino acid at the 16-position, was substituted with Ala or the 1-29 amino acid residue peptide fragment of bovine aFGF in which Cys, an amino acid at the 16-position, was substituted with Ser, was administered by continuous intracerebroventricular infusion (850 μg/ml. respectively) into the lateral cerebral ventricles of Wister-strain rat (250-300 g. 4 rats/a group) and their common carotid arteries were occluded for 15 minutes to induce ischemic insult. Five days after ischemia, the rats were deeply anesthetized with sodium pentobarbital and transcardially perfused. Then, the brains were frozen and cut coronally in 20 μm sections by microtomy, and stained by Nissl bodies. The sections were examined by histological analysis. As a result of the analyses, the protecting effect of the peptide of the present invention on neuronal death in the CA1 subfields of the hippocampus was observed (Ala-substituted peptide; 3/4 rats, Ser-substituted peptide; 4/4 rats).

Sequence: FNLPLGNYKKPKLLYASNGGTFLRILPDG
- latency (seconds): time until the mouse came into the dark box in the test trial [1]: unexpectedly higher
- diving time (latency) until escape to the platform, Block 1 to Block 4 ([2]; SAM-P/8, ninth month from birth, dosing as in passive avoidance test, compared to the decrease for control (SAM-P/8), FIG. 2): unexpectedly decreased
- staying time in area 3, where the platform was located ([2]; SAM-P/8, platform removed after four blocks, compared to control (SAM-P/8), t-test p<0.001, FIG. 3): unexpectedly higher
- protecting effect on neuronal death in the CA1 subfields of the hippocampus observed [3]: 3/4
